Target: COVID-19 virus M^pro (Severe acute respiratory syndrome coronavirus 2, UniProt P0DTD1)
Assay: enzymatic inhibition assay
Assay type: biochemical

CN(C)CCCSc1ccccc1NC(=O)/C=C/c1ccccc1 [cinanserin]
IC50: 125 µM

Reference: publication doi:10.1101/2020.02.26.964882v3 (biorxiv, 2020)
